In the supplement of paper PMC10307832:

Assays:
Experiment in all cases: relative viability (nuclei count vs DMSO), 5 days (fraction); higher = more cells survive
[1] = tested on: LCLC-103H
Method in brief: (§1)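 Lung cancer cell lines in 1536-well plates got either a single drug or a fixed anchor-drug dose together with five library-drug doses (not always all listed) in √10 steps, by pin tool, on the day after seeding. Nuclei were counted after 5 days, and relative viability is the treated-to-vehicle ratio of nuclei counts. Values are medians of duplicate plates.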

[2] = tested on: HCC-827
Method in brief: as §1

[3] = tested on: HCC-44
Method in brief: as §1

[4] = tested on: NCI-H1944
Method in brief: as §1

[5] = tested on: NCI-H1666
Method in brief: as §1

[6] = tested on: ABC-1
Method in brief: as §1

[7] = tested on: LXF-289
Method in brief: as §1

[8] = tested on: CAL-12T
Method in brief: as §1

[9] = tested on: RERF-LC-KJ
Method in brief: as §1

[10] = tested on: NCI-H1793
Method in brief: as §1

[11] = tested on: NCI-H1755
Method in brief: as §1

[12] = tested on: SK-LU-1
Method in brief: as §1

[13] = tested on: NCI-H1395
Method in brief: as §1

[14] = tested on: LU99A
Method in brief: as §1

[15] = tested on: NCI-H2126
Method in brief: as §1

[16] = tested on: NCI-H2347
Method in brief: as §1

[17] = tested on: NCI-H3122
Method in brief: as §1

[18] = tested on: NCI-H1792
Method in brief: as §1

[19] = tested on: NCI-H322M
Method in brief: as §1

[20] = tested on: NCI-H358
Method in brief: as §1

[21] = tested on: NCI-H520
Method in brief: as §1

[22] = tested on: ChaGo-K-1
Method in brief: as §1

Molecule Cc1cn(-c2cc(NC(=O)c3ccc(C)c(Nc4nccc(-c5cccnc5)n4)c3)cc(C(F)(F)F)c2)cn1 [Nilotinib] + COc1cccc2cc(-c3nc([C@H]4CC[C@H](C(=O)O)CC4)n4ncnc(N)c34)[nH]c12 [OSI-027] (partner 0.5 µM) has a relative viability ([1]; first compound 0.001 µM) of 0.406, a relative viability ([1]; first compound 0.003162 µM) of 0.58 and a relative viability ([1]; first compound 0.01 µM) of 0.508. It also gave a relative viability ([1]; first compound 0.03162 µM) of 0.432, a relative viability ([1]; first compound 0.1 µM) of 0.407 and a relative viability ([2]; first compound 0.003162 µM) of 0.822. It also gave a relative viability ([2]; first compound 0.01 µM) of 0.85, a relative viability ([2]; first compound 0.03162 µM) of 0.603 and a relative viability ([3]; first compound 0.001 µM) of 0.498. The relative viability ([3]; first compound 0.003162 µM) was 0.391, the relative viability ([3]; first compound 0.01 µM) was 0.43 and the relative viability ([3]; first compound 0.03162 µM) was 0.505. The relative viability ([3]; first compound 0.1 µM) was 0.382, the relative viability ([4]; first compound 0.001 µM) was 0.418 and the relative viability ([4]; first compound 0.003162 µM) was 0.407. The relative viability ([4]; first compound 0.01 µM) was 0.367, the relative viability ([4]; first compound 0.03162 µM) was 0.324 and the relative viability ([5]; first compound 0.001 µM) was 0.823. For the same molecule, the relative viability ([5]; first compound 0.003162 µM) was 0.846, the relative viability ([5]; first compound 0.01 µM) was 0.879 and the relative viability ([5]; first compound 0.03162 µM) was 0.753. It also gave a relative viability ([5]; first compound 0.1 µM) of 0.899, a relative viability ([6]; first compound 0.001 µM) of 0.447 and a relative viability ([6]; first compound 0.003162 µM) of 0.479. The relative viability ([6]; first compound 0.01 µM) was 0.45, the relative viability ([6]; first compound 0.03162 µM) was 0.376 and the relative viability ([6]; first compound 0.1 µM) was 0.237. For the same molecule, the relative viability ([7]; first compound 0.001 µM) was 0.807, the relative viability ([7]; first compound 0.003162 µM) was 0.965 and the relative viability ([7]; first compound 0.01 µM) was 0.94. For the same molecule, the relative viability ([7]; first compound 0.03162 µM) was 0.826, the relative viability ([7]; first compound 0.1 µM) was 0.532 and the relative viability ([8]; first compound 0.001 µM) was 0.612. It also gave a relative viability ([8]; first compound 0.003162 µM) of 0.413, a relative viability ([8]; first compound 0.01 µM) of 0.426 and a relative viability ([8]; first compound 0.03162 µM) of 0.427. For the same molecule, the relative viability ([8]; first compound 0.1 µM) was 0.527, the relative viability ([9]; first compound 0.001 µM) was 0.501 and the relative viability ([9]; first compound 0.003162 µM) was 0.586. It also gave a relative viability ([9]; first compound 0.01 µM) of 0.53, a relative viability ([9]; first compound 0.03162 µM) of 0.438 and a relative viability ([9]; first compound 0.1 µM) of 0.374. The relative viability ([10]; first compound 0.001 µM) was 0.269, the relative viability ([10]; first compound 0.003162 µM) was 0.261 and the relative viability ([10]; first compound 0.01 µM) was 0.223. For the same molecule, the relative viability ([10]; first compound 0.03162 µM) was 0.188, the relative viability ([10]; first compound 0.1 µM) was 0.173 and the relative viability ([11]; first compound 0.001 µM) was 0.792. For the same molecule, the relative viability ([11]; first compound 0.003162 µM) was 0.617, the relative viability ([11]; first compound 0.01 µM) was 0.74 and the relative viability ([11]; first compound 0.03162 µM) was 0.553. For the same molecule, the relative viability ([11]; first compound 0.1 µM) was 0.383, the relative viability ([12]; first compound 0.001 µM) was 0.313 and the relative viability ([12]; first compound 0.003162 µM) was 0.322. For the same molecule, the relative viability ([12]; first compound 0.01 µM) was 0.302, the relative viability ([12]; first compound 0.03162 µM) was 0.258 and the relative viability ([12]; first compound 0.1 µM) was 0.265. The relative viability ([13]; first compound 0.001 µM) was 0.673, the relative viability ([13]; first compound 0.003162 µM) was 0.467 and the relative viability ([13]; first compound 0.01 µM) was 0.579. For the same molecule, the relative viability ([13]; first compound 0.03162 µM) was 0.612, the relative viability ([13]; first compound 0.1 µM) was 0.416 and the relative viability ([14]; first compound 0.001 µM) was 0.272. It also gave a relative viability ([14]; first compound 0.003162 µM) of 0.304, a relative viability ([14]; first compound 0.01 µM) of 0.256 and a relative viability ([14]; first compound 0.03162 µM) of 0.313. For the same molecule, the relative viability ([14]; first compound 0.1 µM) was 0.273, the relative viability ([15]; first compound 0.001 µM) was 0.673 and the relative viability ([15]; first compound 0.003162 µM) was 0.706. For the same molecule, the relative viability ([15]; first compound 0.01 µM) was 0.572, the relative viability ([15]; first compound 0.03162 µM) was 0.582 and the relative viability ([15]; first compound 0.1 µM) was 0.544. The relative viability ([16]; first compound 0.001 µM) was 0.512, the relative viability ([16]; first compound 0.003162 µM) was 0.429 and the relative viability ([16]; first compound 0.01 µM) was 0.388. It also gave a relative viability ([16]; first compound 0.03162 µM) of 0.364, a relative viability ([16]; first compound 0.1 µM) of 0.419 and a relative viability ([17]; first compound 0.001 µM) of 0.961. It also gave a relative viability ([17]; first compound 0.003162 µM) of 1.33, a relative viability ([17]; first compound 0.01 µM) of 1.24 and a relative viability ([17]; first compound 0.03162 µM) of 0.66. It also gave a relative viability ([17]; first compound 0.1 µM) of 0.467, a relative viability ([18]; first compound 0.001 µM) of 0.503 and a relative viability ([18]; first compound 0.003162 µM) of 0.473. For the same molecule, the relative viability ([18]; first compound 0.01 µM) was 0.667, the relative viability ([18]; first compound 0.1 µM) was 0.555 and the relative viability ([19]; first compound 0.001 µM) was 0.516. For the same molecule, the relative viability ([19]; first compound 0.003162 µM) was 0.436, the relative viability ([19]; first compound 0.01 µM) was 0.422 and the relative viability ([19]; first compound 0.03162 µM) was 0.384. For the same molecule, the relative viability ([19]; first compound 0.1 µM) was 0.481, the relative viability ([20]; first compound 0.001 µM) was 0.708 and the relative viability ([20]; first compound 0.003162 µM) was 1.09. It also gave a relative viability ([20]; first compound 0.01 µM) of 0.655, a relative viability ([20]; first compound 0.03162 µM) of 0.666 and a relative viability ([20]; first compound 0.1 µM) of 0.252. For the same molecule, the relative viability ([21]; first compound 0.001 µM) was 0.269, the relative viability ([21]; first compound 0.003162 µM) was 0.279 and the relative viability ([21]; first compound 0.01 µM) was 0.325. It also gave a relative viability ([21]; first compound 0.03162 µM) of 0.281, a relative viability ([21]; first compound 0.1 µM) of 0.276 and a relative viability ([22]; first compound 0.001 µM) of 0.49. For the same molecule, the relative viability ([22]; first compound 0.003162 µM) was 0.643, the relative viability ([22]; first compound 0.01 µM) was 0.485 and the relative viability ([22]; first compound 0.03162 µM) was 0.471. It also gave a relative viability ([22]; first compound 0.1 µM) of 0.274.
